Reference: US9211278B2, “Composition containing arylnaphthalene lignan derivative for preventing and/or treating dementia” (KOREA INSTITUTE OF SCIENCE AND TECHNOLOGY, priority 2012, dated 2015)

How the values were obtained:
[1] = system: O-glycosylated maAPP; assay: APP O-glycosylation, O-glycosylation antibody then APP Western blotting; type: cell-based, human; settings: 1, 5, 10 uM, 4 hrs
Experimental: According to the same method as above, HeLa cell line was treated with 1, 5, 10 uM of Justicidin A for 4 hrs. Then, the 5 ul of O-glycosylation antibody (#MMS-248R, Covance) was added to 500 ug of the separated plasma membrane protein, and performed by electrophoresis and the western blotting using the APP antibody (1:2000 diluted, A8717, Sigma).

[2] = system: beta-amyloid (Aβ40, Aβ42) formation; assay: Beta-amyloid (Aβ40, Aβ42) formation, ELISA, in APP-transfected HeLa cells; type: cell-based, human; settings: HeLa-APP cells, various concentrations (FIGS. 1, 2, 6)
Experimental: To test the inhibitory effect of Justicidin A (C1) obtained in Example 2 on the beta-amyloid formation, HeLa cell line transfected with the amyloid precursor protein (APP) driven from human was cultured in DMEM solution (Cat. #11995, Gibco, USA) for use. The cell line was received from Prof. Tae-Wan Kim at Department of Pathology, Columbia University Medical Center, New York, N.Y. 10032, USA.
Specifically, the Justicidin A of Example 2 was added into the cell line culture at the amount indicated in FIG. 1, and then the produced amount of be-amyloid (Aβ40, Aβ42 was measured. Human β-Amyloid[1-40](Aβ40), Human β-Amyloid [1-42](Aβ42) Colorimetric ELISA kit (#KHB3482 and #KHB3442; BioSource International, Inc., U.S.A.) were used to quantify two types of beta-amyloid (Aβ40, Aβ42).
The 5-methoxyJusticidin A (C2) of Example 2 was added into the cell line culture at the amount indicated in FIG. 2, and then the produced amount of be-amyloid was measured according to the method of Example 1.1. The group which was not treated with 5-methoxyjusticidin A was used as a negative control.
The compounds were used at the amount of FIG. 6, and measured for the beta-amyloid (Aβ40, Aβ42) formation according to the same method of Experimental Example <1-1>. The group treated with Justicidin A(C1) was a positive control and the group with no treatment was a negative control.

[3] = system: APP targeted to plasma membrane (maAPP); assay: Targeting of mature APP (maAPP) to plasma membrane, biotinylation method; type: cell-based, human
Experimental: It is reported that APP made in ER, then passed through Golgi, targeted to plasma membrane, in the maAPP form. APP hydrolysis was performed by alpha-secretase, sAPPα secretion was increased, and Aβ secretion, made by beta secretase, was decreased. Relative amount of maAPP increased by Justicidin A, amount of APP targeted to plasma membrane was measured by biotinylation method.
Hela cell line, transfected with the amyloid precursor protein (APP), was incubated in DMEM (Cat. #11995, Gibco, USA). The cell line was received from Prof. Tae-Wan Kim at Department of Pathology, Columbia University Medical Center, New York, N.Y. 10032, USA. 1.5×10^6 cells seeded in 60 mm dish, incubated for 24 hours. […] Avidin (S 1638, Sigma), specifically interacted to biotin, added to pellet (30 ul, 4° C., incubated for 30 min) for precipitation biotinylated protein, and precipitated protein was performed electrophoresis, then measured change of APP protein, exposed protein of outside of cell, by western blotting with APP antibody (1:2000 diluted, A8717, Sigma).
When Justicidin A was treated for 1 hour, the biotinylated APP was increased as the concentration increased 0.03, 0.1, and 0.25 uM, the and the molecular weight was the same as O-glycosylated APP (maAPP) (FIG. 7a). The result of western blotting was measured by band intensity to show the result in FIG. 7b. […]

[4] = molecular target: T1, Aβ42 (Homo sapiens, UniProt P05067); assay: Aβ fibril formation, Thioflavin T (ThT) fluorescence assay; type: biochemical
T1 construct: Aβ42 of 42 amino acids
Experimental: Fibril formation by concentrated Aβ is Alzheimer's representative symptom and has been focused on recently. The concentrated Aβ was measured by Thioflavin T (ThT) fluorescence assay, as chemical process was artificially generated.
For formation of Aβ fibril, Aβ42 was melt in 1,1,1,3,3,3-hexafluoro-2-propanol (HFIP) up to 1 mg/ml, then injected to 96-well plate, the concentration of Aβ42 was 10 uM each well, HFIP was evaporated shortly before the beginning of the experiment. Various concentrations of Justicidin A and a certain amount of 5 uM ThT were added, and Fluorescence intensity was measured at various times by Tecan infinite M1000 microplate reader (Tecan, Switzerland).

[5] = system: male ICR mouse; assay: Morris water maze test, scopolamine-impaired memory model; type: in vivo; settings: oral, 1, 5, 10 and 20 mg/kg, compared to scopolamine group
Experimental: The male ICR mouse was 5 to 6-week age (25-30 g of body weight) (Orientbio Inc., Seougnam, Republic of Korea), and was raised with solid feed and tap water for 1 week before being used for test. At a first day, the normal control group and the group administered by the scopolamine were fed with 5% (v/v) DMSO-saline, the test group was orally administered by 1, 5, 10 and 20 mg/kg/10 ml of Justicidin A (C1) in 5% DMSO-Saline, and the comparative group was administered with 2 mg/kg/10 ml of Donepezil (brand name: Aricept, Eisai) being commercially available as a drug for treating an dementia of the Alzheimer's type. […]
The same test was performed repetitively twice per a day for 4 days as an Acquisition Test, and the entire test was automatically recorded and analyzed with Noldus Ethovision 7.0 program (Noldus Information Technology, USA).
In addition, after finishing the Acquisition Test performed for four (4) days, the Probe test was carried out at fifth day. […] The whole test procedure was automatically recorded and analyzed with Noldus Ethovision 7.0 program (Noldus Information Technology, USA).

T1 sequence (P05067 672-713 limits assumed): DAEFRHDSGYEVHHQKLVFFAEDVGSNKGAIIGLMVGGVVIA

## COc1cc2c(OC)c3c(c(-c4ccc5c(c4)OCO5)c2cc1OC)C(=O)OC3 [Justicidin A]
[1]
  O-glycosylated maAPP: the O-glycosylated maAPP was increased
[2]
  inhibition of beta-amyloid (Aβ40, Aβ42) formation: inhibited the beta-amyloid (Aβ40, Aβ42) formation at a concentration-dependent manner
[3]; 0.1 uM, 10 min to 240 min
  amount of maAPP in the cell membrane, by treatment time: the amount of maAPP in the cell membrane as the treatment time increased
[3]; 0.03, 0.1, and 0.25 uM, 1 hour
  amount of maAPP (biotinylated APP) in plasma membrane, by concentration: amount of maAPP increased in plasma membrane in a concentration-dependent manner
[4]; 5 uM, read-out: inhibition of formation of Aβ fibril compared to the control group
  inhibition at 5 µM: 52%
[4]; various concentrations, up to 36 hrs
  inhibition of formation of Aβ fibril: inhibited the formation of Aβ fibril in a concentration-dependent manner
[5]
  memory and learning ability (acquisition and probe test): equivalent or higher memory and learning ability
